From patent publication US20240050434A1, “HORMAD1 THERAPEUTICS” (Royal Cancer Hospital, priority 2020, published 2024)
Entries after “also recorded” stand apart in the source; their conditions may differ.

Experiments:
[1] = tested on: MDA-157, MDA-468, MDA436 TNBC cell-lines and MCF10A, MTSV1 non-transformed breast cell-lines; assay: SRB viability in HORMAD1-positive TNBC cell-lines versus non-transformed breast cell-lines; format: cell-based; settings: increasing doses, 10-14 days post drugging
Description: To confirm that endogenous HORMAD1 expression in cancer cells (as opposed to transgene-driven HORMAD1 expression) also causes BUB1 inhibitor sensitivity, increasing doses of BUB1 inhibitor was added to 3 HORMAD1-positive triple-negative breast cancer cell-lines (TNBC) and 2 HORMAD1-negative non-transformed breast cell-lines.
Three HORMAD1 positive TNBC cell-lines (MDA-157, MDA-468, MDA436) and two non-transformed breast cell-lines (MCF10A and MTSV1) were treated with increasing doses of BUB1 inhibitor BAY-1816032. 10-14 days post drugging, cell viability was estimated by staining cells with SRB and measuring absorbance. Surviving fractions were calculated (normalised to vehicle treated cells). Data is from 3 replicas, analysed using 2-way ANOVA.

[2] = tested on: TP53 null MCF10A cells expressing a doxycycline-inducible HORMAD1 construct (3D spheroids); assay: 3D spheroid viability (cell titre glo) in TP53 null MCF10A cells with inducible HORMAD1; format: cell-based; settings: increasing doses, 14 days post drugging
Description: TP53 null MCF10A cells expressing a doxycycline-inducible HORMAD1 construct were treated with doxycycline or vehicle. Cells were grown in 3D spheroid cultures. Following doxycycline induction, increasing doses of BUB1 inhibitor BAY-1816032 was added to the cells. 14 days post drugging, cell viability was estimated using cell titre glo reagent. Surviving fractions were calculated (normalised to vehicle treated cells). Data is from 3 replicas, analysed using 2-way ANOVA.

[3] = tested on: RPE1 cells expressing a doxycycline-inducible HORMAD1 construct; assay: Clonogenic survival assay (SRB) in RPE1 cells with doxycycline-inducible HORMAD1; format: cell-based; settings: for clonogenic survival / sensitivity of HORMAD1 expressing versus HORMAD1-negative RPE1 cells: increasing doses, 7-14 days, normalised to vehicle
Description: Cell confluence was analysed every 6 hours for 10 days, using incucyte software. Data are from 3 biological replicates and analysed using a two-way ANOVA. […] RPE1 cells expressing a doxycycline-inducible HORMAD1 expression construct were exposed to doxycycline or vehicle (H2O) and were exposed to 20 nM of the Aurora B inhibitor, AZD1152-HQPA. Cell confluence was analysed every 6 hours for 10 days, using incucyte software. Data are from 3 biological replicates and analysed using a two-way ANOVA. […] 7-10 days post drugging, cells were fixed, stained with SRB, and colonies were counted using Cell Profiler. […] 10 days post drugging, cells were fixed, stained with SRB, and colonies were counted using Cell Profiler. […] RPE1 cells expressing a doxycycline-inducible HORMAD1 expression construct were exposed to doxycycline or vehicle (H2O) and to increasing doses of the Aurora B inhibitor, AZD1152-HQPA. 7-10 days post drugging, cells were fixed, stained with SRB, and colonies were counted using Cell Profiler. […] SUM159 cells expressing a doxycycline-inducible HORMAD1 expression construct were exposed to doxycycline or vehicle (H2O) and to increasing doses of the Aurora B inhibitor, AZD1152-HQPA. 10 days post drugging, cells were fixed, stained with SRB, and colonies were counted using Cell Profiler.
RPE1 cells were reverse transfected with BUB1 or control siRNA particles for 3 days. Cell lysates were collected, and analysed by western blotting using anti-BUB1 and anti-β-ACTIN antibodies. […] RPE1 cells expressing a doxycycline-inducible HORMAD1 expression construct were exposed to doxycycline or vehicle, and were reverse transfected with BUB1 or control siRNA particles. 5 days post transfection, cellular viability was estimated using cell titer glo reagent and surviving fractions were calculated relative to DMSO treated cells. […] Statistical significance estimated using a one-way ANOVA with Sidak's correction. C. Western blot illustrating expression of HORMAD1 in wild-type RPE1 cells and RPE1 cells depleted of BUB1 using CRISPR. WT and BUB1 depleted RPE1 cells expressing a doxycycline-inducible HORMAD1 expression construct, were exposed to doxycycline or vehicle for 3 days. Cell lysates were collected, and analysed by SDS-PAGE and western blotting using anti-HORMAD1, anti-H3 and anti-BUB1 antibodies. […] WT and BUB1 depleted RPE1 cells expressing a doxycycline-inducible HORMAD1 expression construct were exposed to doxycycline or vehicle. 7-10 days post doxycycline induction, cells were fixed, stained with SRB, and cellular viability was estimated using SRB absorbance readings. […] Statistical significance estimated using a one-way ANOVA with Sidak's correction. […] RPE1 expressing a doxycycline-inducible HORMAD1 expression construct, were exposed to doxycycline or vehicle. […] Cells were fixed, stained with SRB, and cellular viability was estimated using SRB absorbance readings. […] Cells were imaged every 4 hours, and confluence was continually measured using incucyte software. Growth curves were plotted, based on confluence. Data represent 3 biological replicas. […] Patient-derived organoids models were grown in culture and cell lysates collected and analysed using SDS-PAGE and western blotting using anti-HORMAD1 and anti-β-ACTIN antibodies. […] Cellular viability was estimated using cell titer glo reagent and surviving fractions were calculated relative to DMSO treated cells. […] Left, dose response curves for each organoid.

AURORA B kinase = AURORA B kinase (Homo sapiens, UniProt Q96GD4); settings: competitive ATP inhibition; Mortlock et al., 2007; cited from earlier work
Sequence of AURORA B kinase (Q96GD4 whole entry): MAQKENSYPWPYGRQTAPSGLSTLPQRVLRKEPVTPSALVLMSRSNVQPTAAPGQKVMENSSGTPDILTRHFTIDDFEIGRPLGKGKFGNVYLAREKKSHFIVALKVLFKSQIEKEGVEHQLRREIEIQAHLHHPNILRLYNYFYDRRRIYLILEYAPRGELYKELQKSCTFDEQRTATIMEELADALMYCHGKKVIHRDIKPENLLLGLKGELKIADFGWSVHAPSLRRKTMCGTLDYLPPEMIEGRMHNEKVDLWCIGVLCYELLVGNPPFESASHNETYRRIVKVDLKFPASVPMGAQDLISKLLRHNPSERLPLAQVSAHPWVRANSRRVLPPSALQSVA

SMILES | surviving fraction, HORMAD1-positive TNBC cell-lines compared with HORMAD1-negative non-transformed cell-lines [1] | growth inhibition of HORMAD1 expressing versus HORMAD1-negative spheroids [2] | reduction of clonogenic capacity of RPE1 cells in presence of HORMAD1 expression compared to RPE1 cells not expressing HORMAD1 ([3]; 10 days post drugging) [%] | clonogenic survival / sensitivity of HORMAD1 expressing versus HORMAD1-negative RPE1 cells [3] | inhibition of AURORA B kinase activity (AURORA B kinase)
COc1cnccc1Nc1nc(-c2nn(Cc3c(F)cc(OCCO)cc3F)c3ccccc23)ncc1OC [BAY-1816032] | significant differences | more effectively inhibited | 60 | increased cellular sensitivity | –
CCN(CCO)CCCOc1ccc2c(Nc3cc(CC(=O)Nc4cccc(F)c4)[nH]n3)ncnc2c1 [AZD1152-HQPA] | – | – | – | more effectively inhibited; also recorded: reduced clonogenic survival; also recorded: increased Aurora B inhibitor sensitivity | potently inhibits
